The text below walks through data of ChEMBL document CHEMBL1201862, “PubChem BioAssay data set” (2004).

In test [1] the target is T1, High affinity choline transporter 1 (Homo sapiens, UniProt Q9GZV3).
T1 sequence (Q9GZV3 whole entry): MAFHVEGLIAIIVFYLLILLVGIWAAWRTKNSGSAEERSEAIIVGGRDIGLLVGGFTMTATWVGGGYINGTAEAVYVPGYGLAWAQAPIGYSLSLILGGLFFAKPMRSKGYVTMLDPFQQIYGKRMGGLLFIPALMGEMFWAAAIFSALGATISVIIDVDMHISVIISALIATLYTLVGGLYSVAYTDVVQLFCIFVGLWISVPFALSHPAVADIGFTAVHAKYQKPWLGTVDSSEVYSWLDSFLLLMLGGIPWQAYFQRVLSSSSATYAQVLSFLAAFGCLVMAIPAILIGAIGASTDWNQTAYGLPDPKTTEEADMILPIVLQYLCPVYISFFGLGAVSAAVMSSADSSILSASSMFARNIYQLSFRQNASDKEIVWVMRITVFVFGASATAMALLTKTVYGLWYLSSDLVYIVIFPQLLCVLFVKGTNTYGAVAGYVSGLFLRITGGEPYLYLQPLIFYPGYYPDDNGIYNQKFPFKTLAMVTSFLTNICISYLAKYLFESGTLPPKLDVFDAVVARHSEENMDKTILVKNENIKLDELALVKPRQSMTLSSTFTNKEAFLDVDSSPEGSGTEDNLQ
Description: human choline transporter blockers, potency – cell-based, 10-point CRC, membrane potential dye, dose response (AID 588401).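 Note: membrane potential dye fluorescence of choline-evoked depolarization via CHT.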 It is filed as functional.

Test [2] has as its target T1, High affinity choline transporter 1. Description: human choline transporter blockers, potency – cell-based, 5-point CRC, membrane potential dye, dose response (AID 504840). The test is classed as functional.
A further test deals with P388. Description: cells. The test is classed as functional. As to conditions: Mus musculus.
Another test concerns P388/ADR. Description: cells. The test is classed as functional. Conditions: Mus musculus.
The subject of another test is SN12K1. Description: cells. It is filed as functional. Conditions: Homo sapiens.
The target in test [3] is T2, Sentrin-specific protease 6 (Homo sapiens, UniProt Q9GZR1).
T2 sequence (Q9GZR1 whole entry): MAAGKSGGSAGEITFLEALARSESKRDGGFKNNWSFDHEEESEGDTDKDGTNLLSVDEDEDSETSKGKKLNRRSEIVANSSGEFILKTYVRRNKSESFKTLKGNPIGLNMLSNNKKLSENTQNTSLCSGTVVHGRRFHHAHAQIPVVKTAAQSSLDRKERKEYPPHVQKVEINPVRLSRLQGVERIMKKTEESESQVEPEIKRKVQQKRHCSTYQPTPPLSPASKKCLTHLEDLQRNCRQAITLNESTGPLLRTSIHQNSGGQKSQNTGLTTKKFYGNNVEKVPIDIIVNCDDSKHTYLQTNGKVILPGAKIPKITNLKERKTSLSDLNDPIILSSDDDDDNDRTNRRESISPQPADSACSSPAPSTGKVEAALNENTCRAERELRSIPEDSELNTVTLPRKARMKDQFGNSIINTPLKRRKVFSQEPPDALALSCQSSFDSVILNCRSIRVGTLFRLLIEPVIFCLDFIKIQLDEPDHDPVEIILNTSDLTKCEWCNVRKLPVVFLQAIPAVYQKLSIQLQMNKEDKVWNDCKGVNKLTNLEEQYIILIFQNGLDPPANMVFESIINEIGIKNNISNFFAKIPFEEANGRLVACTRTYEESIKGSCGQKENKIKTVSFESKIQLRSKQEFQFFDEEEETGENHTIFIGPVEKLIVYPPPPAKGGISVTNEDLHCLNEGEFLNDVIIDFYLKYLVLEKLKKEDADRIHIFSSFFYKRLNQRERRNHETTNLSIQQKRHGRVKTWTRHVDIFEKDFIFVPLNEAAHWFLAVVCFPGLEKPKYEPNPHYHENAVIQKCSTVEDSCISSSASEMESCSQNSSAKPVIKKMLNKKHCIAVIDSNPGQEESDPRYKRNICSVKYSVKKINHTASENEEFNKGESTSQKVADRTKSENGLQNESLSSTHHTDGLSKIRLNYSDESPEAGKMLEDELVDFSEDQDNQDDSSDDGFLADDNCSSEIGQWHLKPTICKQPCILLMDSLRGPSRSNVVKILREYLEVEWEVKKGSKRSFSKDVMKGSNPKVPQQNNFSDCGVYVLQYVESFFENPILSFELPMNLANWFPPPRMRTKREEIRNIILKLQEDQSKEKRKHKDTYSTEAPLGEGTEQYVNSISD
Description: SAR Analysis of small molecule inhibitors of Sentrin-specific protease 6 (SENP6) using a Luminescent assay. [Related pubchem assays (depositor defined):AID2582, AID2599]. It is filed as functional.

The target in test [4] is T3, Sentrin-specific protease 8 (Homo sapiens, UniProt Q96LD8).
T3 sequence (Q96LD8 whole entry): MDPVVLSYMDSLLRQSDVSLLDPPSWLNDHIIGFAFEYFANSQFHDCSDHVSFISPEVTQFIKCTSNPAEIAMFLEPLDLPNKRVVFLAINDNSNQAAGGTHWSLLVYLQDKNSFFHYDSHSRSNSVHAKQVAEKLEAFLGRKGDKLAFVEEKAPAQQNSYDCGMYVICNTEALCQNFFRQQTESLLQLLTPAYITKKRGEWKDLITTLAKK
Description: inhibition of human SENP8 cleavage activity – biochemical, luminescence, SAR follow-up (AID 504501). It is filed as functional.

For test [5], the target named is T4, Sentrin-specific protease 7 (Homo sapiens, UniProt Q9BQF6).
T4 sequence (Q9BQF6 whole entry): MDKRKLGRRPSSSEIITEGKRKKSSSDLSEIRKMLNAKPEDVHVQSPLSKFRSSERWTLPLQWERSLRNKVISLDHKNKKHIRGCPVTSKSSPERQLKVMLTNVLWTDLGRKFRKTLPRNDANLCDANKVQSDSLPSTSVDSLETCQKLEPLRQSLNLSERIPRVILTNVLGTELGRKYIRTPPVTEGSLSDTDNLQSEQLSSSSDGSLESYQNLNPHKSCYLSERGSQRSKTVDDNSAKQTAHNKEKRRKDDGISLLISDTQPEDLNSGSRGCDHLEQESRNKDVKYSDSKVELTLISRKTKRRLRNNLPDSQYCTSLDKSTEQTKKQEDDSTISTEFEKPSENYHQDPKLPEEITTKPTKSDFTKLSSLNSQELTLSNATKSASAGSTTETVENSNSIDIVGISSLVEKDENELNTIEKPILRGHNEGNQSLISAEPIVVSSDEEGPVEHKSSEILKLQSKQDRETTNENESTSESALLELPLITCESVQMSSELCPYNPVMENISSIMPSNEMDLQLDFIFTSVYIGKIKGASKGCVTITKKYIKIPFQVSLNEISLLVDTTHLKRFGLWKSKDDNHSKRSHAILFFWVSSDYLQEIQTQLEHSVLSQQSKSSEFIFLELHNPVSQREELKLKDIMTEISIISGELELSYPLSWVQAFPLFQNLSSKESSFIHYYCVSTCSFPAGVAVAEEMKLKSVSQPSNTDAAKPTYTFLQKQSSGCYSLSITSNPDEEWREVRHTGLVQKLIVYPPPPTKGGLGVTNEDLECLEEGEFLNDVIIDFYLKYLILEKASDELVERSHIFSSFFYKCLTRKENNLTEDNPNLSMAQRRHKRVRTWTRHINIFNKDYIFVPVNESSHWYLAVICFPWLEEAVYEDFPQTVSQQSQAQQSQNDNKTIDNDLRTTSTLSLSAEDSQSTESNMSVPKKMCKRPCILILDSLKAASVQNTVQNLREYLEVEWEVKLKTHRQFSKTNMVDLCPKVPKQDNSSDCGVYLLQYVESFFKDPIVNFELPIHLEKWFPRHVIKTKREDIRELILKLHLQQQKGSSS
Description: inhibition of human SENP7 cleavage activity – biochemical, luminescence, SAR follow-up (AID 504497). It is filed as functional.

The target in the next test is T5, Caspase-3 (Homo sapiens, UniProt P42574).
T5 sequence (P42574 whole entry): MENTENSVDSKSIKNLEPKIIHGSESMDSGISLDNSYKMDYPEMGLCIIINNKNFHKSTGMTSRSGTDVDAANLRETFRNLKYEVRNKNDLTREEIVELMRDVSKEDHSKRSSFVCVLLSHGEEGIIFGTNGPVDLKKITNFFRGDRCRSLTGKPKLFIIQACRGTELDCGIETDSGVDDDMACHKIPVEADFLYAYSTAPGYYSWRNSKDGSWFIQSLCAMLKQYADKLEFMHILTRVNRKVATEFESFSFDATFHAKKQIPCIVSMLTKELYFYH
Description: SAR Analysis of small molecule inhibitors of Sentrin-specific proteases (SENPs) using a Caspase-3 Selectivity assay. [Related pubchem assays (depositor defined):AID2540, AID2599, AID434973, AID489001]. The test is classed as functional.

For test [6], the system named is BJ. Description: BJ-TERT-LT-ST fibroblast viability loss – cell-based, RAS-independent, luminescence, dose response (AID 1935).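 Note: BJ fibroblasts immortalized with TERT plus LT and ST oncogenes.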 The test is classed as functional. As to conditions: Homo sapiens.
Test [7] can be described thus: DRD fibroblast viability loss – cell-based, non-viral oncogenic, luminescence, dose response (AID 1934). The test is classed as functional. As to conditions: Homo sapiens.
The target in test [8] is Heat shock protein HSP 90-alpha (Homo sapiens, UniProt P07900). It is filed as functional, organism-based.
Test [9] has as its system BJ. Description: BJ-TERT fibroblast viability loss – cell-based, RAS-independent, luminescence, dose response (AID 1933). The test is classed as functional. As to conditions: Homo sapiens.
The target in test [10] is Luciferin 4-monooxygenase (Photinus pyralis, UniProt P08659). Description: inhibition of purified Photinus pyralis luciferase – biochemical, luminescence, dose response (AID 1891).
Test [11] is described as follows: Luminescence Cell-Based Dose Confirmation HTS to Identify Inhibitors of Platelet Dense Granule Release. [Related pubchem assays: 1663 (Primary HTS), 1678 (Summary of Project)]. It is filed as functional.
A further test has as its target HSP90 (Plasmodium falciparum 3D7, UniProt Q8IL32). The test is classed as functional, organism-based.
The subject of test [12] is BJ. Description: cells. It is filed as functional, cell-based. As to conditions: Homo sapiens.

Active and inactive are the calls of the source. Some results are limits rather than exact numbers.

Sequence of Luciferin 4-monooxygenase (P08659 whole entry): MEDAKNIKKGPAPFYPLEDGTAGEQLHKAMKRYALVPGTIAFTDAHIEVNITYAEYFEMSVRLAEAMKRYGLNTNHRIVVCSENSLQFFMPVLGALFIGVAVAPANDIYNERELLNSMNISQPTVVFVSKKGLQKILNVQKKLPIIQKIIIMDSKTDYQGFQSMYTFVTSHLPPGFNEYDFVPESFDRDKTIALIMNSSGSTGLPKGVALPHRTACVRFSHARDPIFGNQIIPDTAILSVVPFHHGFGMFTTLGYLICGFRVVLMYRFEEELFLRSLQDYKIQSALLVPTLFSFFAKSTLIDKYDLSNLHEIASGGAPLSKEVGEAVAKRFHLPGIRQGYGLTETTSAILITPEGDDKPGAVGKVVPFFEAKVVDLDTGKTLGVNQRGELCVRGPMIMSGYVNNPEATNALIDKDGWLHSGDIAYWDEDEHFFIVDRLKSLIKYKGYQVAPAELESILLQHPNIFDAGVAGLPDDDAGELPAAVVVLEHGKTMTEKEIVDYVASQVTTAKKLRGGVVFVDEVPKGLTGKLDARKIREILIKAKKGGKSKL
Sequence of HSP90 (Q8IL32 whole entry): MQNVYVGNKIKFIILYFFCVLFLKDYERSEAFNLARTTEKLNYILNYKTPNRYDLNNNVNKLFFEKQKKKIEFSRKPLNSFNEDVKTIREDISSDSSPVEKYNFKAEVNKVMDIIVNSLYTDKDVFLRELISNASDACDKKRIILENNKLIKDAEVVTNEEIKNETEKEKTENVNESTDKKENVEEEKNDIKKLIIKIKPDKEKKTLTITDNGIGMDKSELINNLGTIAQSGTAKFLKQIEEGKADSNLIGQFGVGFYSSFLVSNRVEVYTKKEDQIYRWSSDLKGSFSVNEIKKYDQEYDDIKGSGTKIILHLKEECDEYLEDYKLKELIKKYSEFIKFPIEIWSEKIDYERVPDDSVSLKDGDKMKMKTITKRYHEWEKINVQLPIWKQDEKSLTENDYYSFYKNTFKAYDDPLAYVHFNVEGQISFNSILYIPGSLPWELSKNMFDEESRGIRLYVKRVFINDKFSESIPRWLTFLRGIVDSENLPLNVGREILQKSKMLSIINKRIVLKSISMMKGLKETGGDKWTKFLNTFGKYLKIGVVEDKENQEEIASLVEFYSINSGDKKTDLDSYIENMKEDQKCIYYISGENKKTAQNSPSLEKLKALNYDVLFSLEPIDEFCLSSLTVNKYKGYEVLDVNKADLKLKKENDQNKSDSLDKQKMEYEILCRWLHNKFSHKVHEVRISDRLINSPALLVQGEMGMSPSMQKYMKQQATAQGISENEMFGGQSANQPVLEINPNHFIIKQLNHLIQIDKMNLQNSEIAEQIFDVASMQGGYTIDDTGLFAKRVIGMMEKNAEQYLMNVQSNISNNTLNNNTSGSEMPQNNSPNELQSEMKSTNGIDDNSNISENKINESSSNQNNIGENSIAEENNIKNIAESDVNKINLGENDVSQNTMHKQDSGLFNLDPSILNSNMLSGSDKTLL

As a reminder, the IC50 is the point on the concentration scale where inhibition reaches its midpoint. As for `O=[N+]([O-])/C(C(=C(Cl)Cl)N1CCN(Cc2ccccc2)CC1)=C1\NCCN1Cc1ccc(Cl)nc1`, the IC50 in test [1] is 5.39 µM (active); in test [2] it was 6.15 µM (active).

A word on the GI50: it is the concentration at which growth is held to half of that of the control. In the case of `Nc1ncnc2c1ncn2C1CCC(CO)O1` (stereo unspecified), the GI50 in the test with P388 is 98.6 µM (inactive); in the test with P388/ADR, 69.5 µM (inactive); with SN12K1 it was > 62.4 µM (inactive).

On to `O=C(Nc1nc2ccc(Cl)cc2s1)C1CCCCC1`, for which the IC50 (in test [3]; in [4]; in [5]; on Caspase-3) was > 99 µM (inactive) in each case.

With `COc1cc(OC)cc(-c2noc(/C=C/c3ccccc3Cl)n2)c1`, the IC50 (in test [3]; in test [4]; in [5]; at Caspase-3) was > 99 µM (inactive) in each case.

One may read the EC50 as the concentration giving half of the maximal effect. Usually AC50 stands for the concentration giving half of the maximal activity seen. As to `C(=C\c1nc2ccccc2[nH]1)/c1ccccc1`, the 50% effective concentration (EC50) in the test on BJ [6] is > 150 µM (inconclusive); in test [7], 6.84 µM (active); with BJ [9] it was 6.89 µM (active); in [10], 0.949 µM (active); in test [11], 2.44 µM (active); in the test with BJ [12], 8.19 µM (active). Besides, the half-maximal activity concentration (AC50) was 44 µM (active) in [8] and 106 µM (active) on HSP90.
